Reference: ChEMBL document CHEMBL1201862, “PubChem BioAssay data set” (2004)
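These data come from cells grown in 96-well plates and exposed to compound for 48 hours at five concentrations. The concentration for 50% growth inhibition is given as GI50.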 Activity calls are given as the source filed them. No stated cut-off is given here; in the data, active = GI50 up to about 1.1 µM and inactive = higher.

Columns and labels:
Test in all cases: NCI tumour cell line growth inhibition, 48 h
[1] = test system: KM12
[2] = test system: HOP-62
[3] = test system: NCI-H23
[4] = test system: SW-620
[5] = test system: OVCAR-8
[6] = test system: CCRF-CEM
[7] = test system: A498
[8] = test system: HCC 2998
[9] = test system: SNB-19
[10] = test system: SNB-75
[11] = test system: EKVX
[12] = test system: MOLT-4
[13] = test system: HT-29
[14] = test system: RPMI-8226
[15] = test system: NCI-H226
[16] = test system: A549
[17] = test system: NCI/ADR-RES
[18] = test system: PC-3
[19] = test system: MDA-MB-231

Compound | GI50 [1] | GI50 [2] | GI50 [3] | GI50 [4] | GI50 [5] | GI50 [6] | GI50 [7] | GI50 [8] | GI50 [9] | GI50 [10] | GI50 [11] | GI50 [12] | GI50 [13] | GI50 [14] | GI50 [15] | GI50 [16] | GI50 [17] | GI50 [18] | GI50 [19]
O=C(Cn1cc(I)c(C(=O)NCC(O)CO)n1)NCC(O)CO (stereo not given) | > 100 µM (inactive) | > 100 µM (inactive) | > 100 µM (inactive) | > 100 µM (inactive) | > 100 µM (inactive) | > 100 µM (inactive) | > 100 µM (inactive) | > 100 µM (inactive) | > 100 µM (inactive) | > 100 µM (inactive) | > 100 µM (inactive) | > 100 µM (inactive) | > 100 µM (inactive) | > 100 µM (inactive) | > 100 µM (inactive) | > 100 µM (inactive) |  |  | 
CCCCCCCCCCCCCC(=O)CC(=O)c1c(O)cccc1O | 41.1 µM (inactive) | 34.4 µM (inactive) | 23 µM (inactive) | 23.6 µM (inactive) | 44.3 µM (inactive) | 21.1 µM (inactive) | > 100 µM (inactive) | 38.2 µM (inactive) | 36.4 µM (inactive) | 39.5 µM (inactive) | 30.6 µM (inactive) | 21.5 µM (inactive) | 27.2 µM (inactive) | 25.5 µM (inactive) | 28.4 µM (inactive) | 51.1 µM (inactive) |  |  | 
O=C1/C(=N\NC(=S)Nc2ccc(Cl)cc2)c2cc([N+](=O)[O-])ccc2N1CN1CCOCC1 | 11.7 µM (inactive) | < 0.01 µM (active) | 2.08 µM (inactive) | 4.37 µM (inactive) | 5.6 µM (inactive) | 2.85 µM (inactive) |  |  | 7.89 µM (inactive) | 12.8 µM (inactive) |  | 0.655 µM (active) |  |  | 4.81 µM (inactive) | 8.22 µM (inactive) | 2.2 µM (inactive) | 10.2 µM (inactive) | 15 µM (inactive)
CCc1cccc(C)c1N1C(=O)C(=O)C(c2nc3ccccc3o2)C(=O)C1=O | > 100 µM (inactive) | > 100 µM (inactive) | > 100 µM (inactive) | > 100 µM (inactive) | > 100 µM (inactive) | > 100 µM (inactive) | > 100 µM (inactive) | > 100 µM (inactive) | > 100 µM (inactive) | 45.7 µM (inactive) | > 100 µM (inactive) | > 100 µM (inactive) | > 100 µM (inactive) | > 100 µM (inactive) | > 100 µM (inactive) | > 100 µM (inactive) |  |  | 
Nc1ccc(C(=O)N/C(=C\c2cccc([N+](=O)[O-])c2)c2nc3ccccc3[nH]2)cc1 | > 100 µM (inactive) | 21.8 µM (inactive) | > 75.9 µM (inactive) | > 100 µM (inactive) | 33.1 µM (inactive) | > 100 µM (inactive) | 61.8 µM (inactive) | > 100 µM (inactive) | 40.6 µM (inactive) | 23.3 µM (inactive) | > 88.1 µM (inactive) | > 100 µM (inactive) | > 100 µM (inactive) | > 100 µM (inactive) | > 100 µM (inactive) | 51.3 µM (inactive) |  |  | 
COC(=O)C(=O)C1(CCC(C)=O)c2ccccc2-c2c(C)ccc(C)c21 (stereo not given) | 43 µM (inactive) | 53 µM (inactive) | 24.7 µM (inactive) | 48.4 µM (inactive) | 34.4 µM (inactive) | 37.1 µM (inactive) | 55.7 µM (inactive) | 87.5 µM (inactive) | > 100 µM (inactive) | 53 µM (inactive) | 31.4 µM (inactive) | 23.1 µM (inactive) | 32.7 µM (inactive) | 26.2 µM (inactive) | > 100 µM (inactive) | 46.5 µM (inactive) |  |  | 
O=C(/C=C\c1cccc2ccccc12)c1ccc(F)cc1 | 15 µM (inactive) | 69.8 µM (inactive) | 20 µM (inactive) | 7.52 µM (inactive) | 14.8 µM (inactive) | 13.6 µM (inactive) | 29.7 µM (inactive) | 19.5 µM (inactive) | 16.6 µM (inactive) | 30.5 µM (inactive) | 18.8 µM (inactive) | 16 µM (inactive) | 17.3 µM (inactive) | 4.21 µM (inactive) | 35.9 µM (inactive) | 26.8 µM (inactive) |  |  | 
